Source: publication PMC10734773, “Synthesis of benzoyl hydrazones having 4-hydroxy-3,5-dimethoxy phenyl ring, their biological activities, and molecular modeling studies on enzyme inhibition activities” (Turkish Journal of Chemistry, 2021)

Tests used:
[1] = biological target: AChE (acetylcholinesterase from eel) (Electrophorus electricus, UniProt O42275); conditions: acetylthiocholine-type substrate (AcI [sic]), DTNB, pH 8.0, 25 °C, 15 min preincubation
[2] = biological target: T1, BChE (butyrylcholinesterase from horse serum) (Equus caballus, UniProt P81908); assay: Ellman assay, […] nm; type: biochemical; conditions: butyrylthiocholine chloride, DTNB, pH 8.0, room conditions, 15 min preincubation
T1 construct: native enzyme preparation from horse serum

[3] = biological target: T2, Tyrosinase (tyrosinase mushroom); assay: spectrophotometric dopachrome assay, […] nm; type: biochemical, Agaricus bisporus; conditions: L-DOPA, pH 6.8, 37 °C, 10 min preincubation
T2 construct: gene PPO3; native mushroom tyrosinase preparation, isoenzyme mixture not resolved; only 'mushroom' given

T1 sequence (P81908 whole entry): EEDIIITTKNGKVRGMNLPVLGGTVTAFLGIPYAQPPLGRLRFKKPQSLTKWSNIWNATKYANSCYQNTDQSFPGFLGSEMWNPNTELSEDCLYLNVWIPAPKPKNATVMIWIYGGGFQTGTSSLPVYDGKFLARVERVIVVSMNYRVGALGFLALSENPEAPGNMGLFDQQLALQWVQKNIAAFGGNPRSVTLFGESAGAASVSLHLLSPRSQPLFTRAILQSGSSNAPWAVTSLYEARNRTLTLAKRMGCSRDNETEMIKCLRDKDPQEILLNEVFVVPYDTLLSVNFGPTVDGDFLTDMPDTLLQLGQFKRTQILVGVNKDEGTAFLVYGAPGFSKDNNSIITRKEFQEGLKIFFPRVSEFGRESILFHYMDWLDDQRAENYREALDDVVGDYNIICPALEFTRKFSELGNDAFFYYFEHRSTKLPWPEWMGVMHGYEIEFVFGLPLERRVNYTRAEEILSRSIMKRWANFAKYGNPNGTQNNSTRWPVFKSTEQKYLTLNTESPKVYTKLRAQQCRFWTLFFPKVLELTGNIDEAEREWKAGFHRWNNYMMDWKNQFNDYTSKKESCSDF
Sequence of AChE (acetylcholinesterase from eel) (O42275 24-633): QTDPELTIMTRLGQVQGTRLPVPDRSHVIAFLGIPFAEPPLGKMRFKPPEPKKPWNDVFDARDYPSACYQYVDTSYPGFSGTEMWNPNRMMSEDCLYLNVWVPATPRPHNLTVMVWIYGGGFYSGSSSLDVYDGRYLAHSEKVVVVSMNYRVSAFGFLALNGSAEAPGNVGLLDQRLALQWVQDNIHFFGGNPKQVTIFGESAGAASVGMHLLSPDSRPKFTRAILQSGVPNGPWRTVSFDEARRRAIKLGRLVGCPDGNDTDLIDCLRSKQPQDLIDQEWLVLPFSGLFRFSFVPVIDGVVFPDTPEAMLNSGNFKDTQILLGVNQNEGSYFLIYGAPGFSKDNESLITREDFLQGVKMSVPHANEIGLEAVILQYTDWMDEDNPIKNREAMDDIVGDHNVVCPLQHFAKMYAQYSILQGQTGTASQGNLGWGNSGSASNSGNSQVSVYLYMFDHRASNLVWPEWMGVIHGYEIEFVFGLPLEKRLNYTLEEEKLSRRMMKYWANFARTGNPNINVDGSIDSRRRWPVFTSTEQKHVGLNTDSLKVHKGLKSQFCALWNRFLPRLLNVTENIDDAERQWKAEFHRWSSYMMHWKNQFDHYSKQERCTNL

Row | SMILES | Anticholinesterase Activity / AChE assay (IC50 μM/mL) (IC50 μM/mL) [1] | Anticholinesterase Activity / BChE assay (IC50 μM/mL) [2] | Tyrosinase activity (IC50 mM/mL) [3]
1 | COc1cc(C=NNC(=O)c2ccccc2)cc(OC)c1O [7a, N′-(4-hydroxy-3,5-dimethoxybenzylidene)benzohydrazide] | 101.04 ± 0.49 μM/mL | 122.04 ± 0.87 μM/mL | 88.73 ± 0.26 mM/mL
2 | COc1cc(C=NNC(=O)c2ccc(Br)cc2)cc(OC)c1O [7b, 4-bromo-N′-(4-hydroxy-3,5-dimethoxybenzylidene)benzohydrazide] | 93.00 ± 1.11 μM/mL | 116.82 ± 0.66 μM/mL | 82.08 ± 1.09 mM/mL
3 | COc1cc(C=NNC(=O)c2ccc(Cl)cc2)cc(OC)c1O [7c, 4-chloro-N′-(4-hydroxy-3,5-dimethoxybenzylidene)benzohydrazide] | 82.14 ± 0.56 μM/mL | 102.87 ± 0.48 μM/mL | 70.91 ± 0.24 mM/mL
4 | COc1cc(C=NNC(=O)c2ccc(F)cc2)cc(OC)c1O [7d, 4-fluoro-N′-(4-hydroxy-3,5-dimethoxybenzylidene)benzohydrazide] | 88.37 ± 0.11 μM/mL | 109.44 ± 0.09 μM/mL | 64.38 ± 0.99 mM/mL
5 | COc1ccc(C(=O)NN=Cc2cc(OC)c(O)c(OC)c2)cc1 [7e, N′-(4-hydroxy-3,5-dimethoxybenzylidene)-4-methoxybenzohydrazide] | 75.01 ± 0.94 μM/mL | 96.33 ± 0.61 μM/mL | 10.15 ± 0.04 mM/mL
6 | COc1cc(C=NNC(=O)c2ccc([N+](=O)[O-])cc2)cc(OC)c1O [7f, N′-(4-hydroxy-3,5-dimethoxybenzylidene)-4-nitrobenzohydrazide] | 40.07 ± 0.25 μM/mL | 52.39 ± 0.49 μM/mL | 18.22 ± 0.35 mM/mL
7 | COc1cc(C=NNC(=O)c2ccccc2C(F)(F)F)cc(OC)c1O [7g, N′-(4-hydroxy-3,5-dimethoxybenzylidene)-2-(trifluoromethyl)benzohydrazide] | 70.13 ± 0.89 μM/mL | 83.08 ± 0.34 μM/mL | 61.07 ± 0.55 mM/mL
8 | COc1cc(C=NNC(=O)c2cccc(C(F)(F)F)c2)cc(OC)c1O [7h, N′-(4-hydroxy-3,5-dimethoxybenzylidene)-3-(trifluoromethyl)benzohydrazide] | 73.75 ± 0.34 μM/mL | 88.70 ± 0.77 μM/mL | 56.88 ± 0.37 mM/mL
9 | COc1cc(C=NNC(=O)c2ccc(C(F)(F)F)cc2)cc(OC)c1O [7i, N′-(4-hydroxy-3,5-dimethoxybenzylidene)-4-(trifluoromethyl)benzohydrazide] | 51.08 ± 0.41 μM/mL | 64.09 ± 0.30 μM/mL | 49.73 ± 0.12 mM/mL
10 | COc1cc(C=NNC(=O)c2cc(C(F)(F)F)cc(C(F)(F)F)c2)cc(OC)c1O [7j, N′-(4-hydroxy-3,5-dimethoxybenzylidene)-3,5-bis-(trifluoromethyl)benzohydrazide] | 44.83 ± 0.12 μM/mL | 57.30 ± 0.87 μM/mL | 40.08 ± 0.86 mM/mL
11 | COc1cc(C=NNC(=O)c2ccccc2OC(F)(F)F)cc(OC)c1O [7k, N′-(4-hydroxy-3,5-dimethoxybenzylidene)-2-(trifluoromethoxy)benzohydrazide] | 59.31 ± 0.77 μM/mL | 69.18 ± 0.98 μM/mL | 29.78 ± 0.43 mM/mL
12 | COc1cc(C=NNC(=O)c2cccc(OC(F)(F)F)c2)cc(OC)c1O [7l, N′-(4-hydroxy-3,5-dimethoxybenzylidene)-3-(trifluoromethoxy)benzohydrazide] | 68.09 ± 0.02 μM/mL | 80.62 ± 0.36 μM/mL | 24.30 ± 0.78 mM/mL
13 | COc1cc(C=NNC(=O)c2ccc(OC(F)(F)F)cc2)cc(OC)c1O [7m, N′-(4-hydroxy-3,5-dimethoxybenzylidene)-4-(trifluoromethoxy)benzohydrazide] | 62.04 ± 0.39 μM/mL | 77.26 ± 0.42 μM/mL | 36.62 ± 0.56 mM/mL
